Experiment: in vitro
Details: human, hela cells, % viability

First: Cc1ccc(NC(=O)CCC(=O)N/N=C/c2ccco2)c(C)c1 [CBK263885]
Second: Cc1ccc2c(c1)oc(=O)n2CCNC(=O)c1cccs1 [CBK284472]
The viability at 28.5 h, 10 µM of the first is lower: 96.4% for the first, 99.9% for the second.

First: Clc1ccccc1-c1nccnc1OCCOc1ccccc1 [CBK107011]
Second: Nc1ncc(-c2cccc3ccccc23)nc1NCc1ccccc1 [CBK063565]
The viability at 28.5 h, 10 µM of the first is lower: 95.9% for the first, 99% for the second.

Going from `O=C(O)c1ccccc1C(=O)NCCC1=CCCCC1` [CBK287113] to `COCCNC(=O)c1ccc(-c2ccccc2C)nc1NC(C)=O` [CBK106325], the viability at 28.5 h, 10 µM rises from 87.8% to 109%.

Going from `CCS(=O)(=O)N1CCC2(C=Cc3cc(F)ccc3O2)CC1` [CBK284747] to `O=C1[C@H]2CN(S(=O)(=O)c3ccc(F)cc3)CCN2C(=O)N1CCO` [CBK289640], the viability at 28.5 h, 10 µM falls from 104% to 84.5%.

Compared with `O=S(=O)(Nc1ccc(-c2csnn2)cc1)c1ccc(F)cc1` [CBK050482], `O=C(/C=C/c1ccc2c(c1)OCO2)NCc1ccc(-c2csnn2)cc1` [CBK149297] is lower in viability at 28.5 h, 10 µM: 92.1% for the first, 88.1% for the second.

First: CCOC(=O)c1c(-c2ccccc2)oc2ccc(OCC(=O)NN)cc12 [CBK263826]
Second: O=C(COc1ccccc1Cl)NC(=S)Nc1cccc(C(=O)O)c1 [CBK265662]
The viability at 28.5 h, 10 µM of the first is higher: 91.8% for the first, 91.4% for the second.

Going from `Cc1noc(C)c1S(=O)(=O)Nc1ccc2nsnc2c1` [CBK062223] to `CN1CCN(C(=O)c2cccc(NS(=O)(=O)c3cc(Cl)sc3Cl)c2)CC1` [CBK038966], the viability at 28.5 h, 10 µM rises from 90.4% to 96.2%.

First: O=S(=O)(Nc1ccccc1N1CCCCC1)c1ccc(Cl)cc1 [CBK077063]
Second: CCC(C)(C)c1ccc(S(=O)(=O)Nc2cc(Cl)ccc2O)cc1 [CBK045243]
The viability at 28.5 h, 10 µM of the first is higher: 100% for the first, 96% for the second.

Compared with `CCN(Cc1ccncc1)S(=O)(=O)c1ccc(Cl)c(Cl)c1` [CBK043818], `CCN(Cc1ccncc1)C(=O)NCCc1ccc(OC)cc1` [CBK155149] is lower in viability at 28.5 h, 10 µM: 96.2% for the first, 94.6% for the second.

Going from `CC(C)(CO)Cn1c(=O)[nH]c2ncc(-c3cccnc3)nc21` [CBK064697] to `O=C(Nc1cccnc1)c1cccnc1C(=O)O` [CBK269663], the viability at 28.5 h, 10 µM falls from 107% to 90.1%.

First: CCC(CO)Nc1cncc(-c2ccccc2CO)n1 (centres unmarked) [CBK065775]
Second: O=C1c2ccccc2NC(c2cnc3ccccc3n2)N1O (centres unmarked) [CBK288357]
The viability at 28.5 h, 10 µM of the first is higher: 103% for the first, 84.7% for the second.

Compared with `CCCCN(C)c1c(C)nc2c(OCC(=O)c3ccc(F)cc3)cccn12` [CBK147172], `COc1ccc(OCCN2CCC(C(=O)c3ccc(F)cc3)CC2)cc1` [CBK149136] is higher in viability at 28.5 h, 10 µM: 93.1% for the first, 104% for the second.

Compared with `COCC(C)NS(=O)(=O)c1cc(Cl)ccc1OC` (centres unmarked) [CBK270203], `COC(=O)CSc1nnc(-c2cc(Cl)ccc2OC)[nH]1` [CBK270248] is higher in viability at 28.5 h, 10 µM: 90.7% for the first, 97% for the second.

Going from `CNC(=O)C1CCCN1C(=O)c1nnn(Cc2ccc(F)cc2F)c1C` (centres unmarked) [CBK306496] to `COC[C@H]1CCCN1C(=O)Cn1[nH]c(C)c(Cc2c(Cl)cccc2Cl)c1=O` [CBK115407], the viability at 28.5 h, 10 µM rises from 93.2% to 103%.

First: Cc1ccc(Oc2ncccc2NC(=O)CN2CCC(NC(=O)c3ccccc3)CC2)c2c1CCC2 [CBK074715]
Second: Cc1cccc(C)c1NC(=O)CN1CCCN(c2nccc(OCC3COc4ccccc4O3)n2)CC1 (centres unmarked) [CBK083974]
The viability at 28.5 h, 10 µM of the first is higher: 112% for the first, 102% for the second.

Compared with `COc1cc(C(=O)N2CCC3(CC2)CC(=O)c2cc(C)ccc2O3)cc(-c2ccc(OC)c(OC)c2)c1` [CBK168271], `COc1cc(CNC(=O)c2cncc(-c3ccc(C(=O)N4CCOCC4)cc3)c2)cc(OC)c1OC` [CBK158632] is higher in viability at 28.5 h, 10 µM: 88.9% for the first, 114% for the second.

Compared with `CC(C)C(=O)N1C[C@@H](N(C)C)[C@H](c2cn(C)c3ccccc23)C1` [CBK282717], `CC(=O)c1cn(CCC(=O)NC2CCCN(C)C2)c2ccccc12` (centres unmarked) [CBK282503] is lower in viability at 28.5 h, 10 µM: 91.2% for the first, 81.3% for the second.

Compared with `OC1(Cn2cnc3ccccc32)CCN(Cc2cccc(F)c2)CC1` [CBK284663], `CN1CCN(Cc2ccc(-c3ccc(C(N)=O)cc3)nc2)CC1` [CBK306750] is lower in viability at 28.5 h, 10 µM: 94.9% for the first, 87.3% for the second.

Compared with `CS(=O)(=O)Cc1cccc(C(=O)Nc2ccc(Oc3ccccc3)cc2)c1` [CBK297111], `O=C(O)CCN1C(=O)c2ccc(Oc3ccc(NC(=O)c4ccc(Cl)c(Cl)c4)cc3)cc2C1=O` [CBK267400] is higher in viability at 28.5 h, 10 µM: 87.5% for the first, 90.6% for the second.

Compared with `Cc1nc2c(c(=O)[nH]1)CN(Cc1cn(C(C)C)c3ccccc13)CC2` [CBK284014], `NC1=C(c2nc3ccccc3s2)C(=O)CN1CCN1CCOCC1` [CBK265946] is lower in viability at 28.5 h, 10 µM: 93.5% for the first, 93.1% for the second.

Compared with `CCCCSc1nc(N)cc(N2CCC(N3CCCC3=O)CC2)n1` [CBK307525], `COc1ccc2cc3c(nc2c1)OC(=O)N(CC1CC1)C3` [CBK282432] is lower in viability at 28.5 h, 10 µM: 108% for the first, 86.8% for the second.

Going from `O=C(NCCCNC(=O)c1ccc(Br)o1)c1ccccn1` [CBK269430] to `CN(C)C(=O)NCCNC(=O)c1c[nH]nc1-c1cc2ccccc2o1` [CBK306157], the viability at 28.5 h, 10 µM falls from 107% to 85.7%.

Going from `Oc1cccc(/C=N/Nc2nncc(-c3ccccc3)n2)c1` [CBK262468] to `O=C(OCc1cccc(C(=O)c2ccccc2)c1)c1ccc(-c2nnc(-c3ccccc3)o2)cc1` [CBK267852], the viability at 28.5 h, 10 µM rises from 86.6% to 104%.

First: CS(=O)(=O)N1CC2(CCN(C(=O)[C@@H](N)COCc3ccccc3)CC2)c2ccccc21 [CBK022597C]
Second: COc1ccc(CC(=O)N2CCC(Cc3ccccc3-c3ccccc3)(C(N)=O)CC2)cc1 [CBK285911]
The viability at 28.5 h, 10 µM of the first is higher: 104% for the first, 91.8% for the second.

Going from `Cn1c(SCc2cc(-c3ccc(Cl)cc3)no2)nnc1-c1ccco1` [CBK295193] to `COc1cc(-c2nc(-c3ccc(Cl)cc3)c(-c3ccccc3)[nH]2)c([N+](=O)[O-])cc1OC` [CBK264503], the viability at 28.5 h, 10 µM rises from 81.9% to 98.9%.

Going from `Cc1cc(CSc2cccc(F)c2)no1` [CBK002916] to `CCOc1ccc(NC(=O)CSc2nc3nc(C)cc(C)n3n2)cc1` [CBK268278], the viability at 28.5 h, 10 µM rises from 97% to 107%.

First: Cc1nn(Cc2nnn(CC(=O)O)n2)c(C)c1Br [CBK009457]
Second: O=C(O)CCc1ccc(-c2ccc(Br)cc2)n1-c1ccccc1O [CBK131892]
The viability at 28.5 h, 10 µM of the first is higher: 101% for the first, 93.9% for the second.

Compared with `CC(C)(C)OC(=O)N1CCN(c2nccnc2Cl)CC1` [CBK013554], `CCN1CCN(C(=O)c2cnccn2)CC1` [CBK200373] is lower in viability at 28.5 h, 10 µM: 102% for the first, 81.6% for the second.

Compared with `Cc1ccc2[nH]nc(C(=O)NC(C)c3ccccn3)c2c1` (centres unmarked) [CBK281887], `CC(C)c1ccc(CNC(=O)c2ccc(-c3ccoc3)nc2)cc1` [CBK156292] is higher in viability at 28.5 h, 10 µM: 69.9% for the first, 91.4% for the second.

First: O=C(O)C1CCCN1S(=O)(=O)c1ccc(Cl)cc1 (centres unmarked) [CBK261249]
Second: CC1CCN(S(=O)(=O)c2ccc(NC(=O)c3ccc(Br)o3)cc2)CC1 [CBK264536]
The viability at 28.5 h, 10 µM of the first is lower: 88.1% for the first, 101% for the second.

Compared with `CC(C)(C)c1nn(CC2CCCCC2)c(=N)s1` [CBK075042], `O=C(Cc1nc(-c2ccncc2)n[nH]1)NC1CCCCC1` [CBK288544] is higher in viability at 28.5 h, 10 µM: 96.2% for the first, 110% for the second.

First: COc1ccc(-c2cc(C(F)(F)F)nc(S(=O)(=O)CCC(=O)Nc3ccc(C)cc3)n2)cc1 [CBK266235]
Second: CC(=O)Nc1ccc(-c2nc3cc(-c4nc5ccc(NC(C)=O)cc5[nH]4)ccc3[nH]2)cc1 [CBK261165]
The viability at 28.5 h, 10 µM of the first is higher: 105% for the first, 91.2% for the second.

Compared with `O=C(Cn1cccn1)NCC(c1ccccc1Cl)N1CCOCC1` (centres unmarked) [CBK305593], `O=C(CN1CCCCC1CN1CCOCC1)NCc1ccccn1` (centres unmarked) [CBK304375] is higher in viability at 28.5 h, 10 µM: 93.1% for the first, 115% for the second.

Going from `COc1ccc(Br)c(C(CO)N(C)C(=O)Cc2cnccc2C)c1` (centres unmarked) [CBK306267] to `CC(=O)c1sc(NC(=O)c2ccccc2Oc2ccccc2)nc1C` [CBK287314], the viability at 28.5 h, 10 µM falls from 96.4% to 90.9%.

Going from `CC(OC(=O)c1ccc(O)cc1)C(=O)Nc1ccc(Cl)c(Cl)c1` (centres unmarked) [CBK264281] to `CCOc1ncccc1C(=O)NCc1ccc(NC(N)=O)cc1` [CBK279382], the viability at 28.5 h, 10 µM rises from 96.4% to 111%.

Compared with `Cn1c(=O)c2c(ncn2CCCn2cnc3c2c(=O)n(C)c(=O)n3C)n(C)c1=O` [CBK268933], `O=C1CCC(=O)N1CCOc1nccnc1OC1CCN(CCCn2c(=O)[nH]c3ccccc32)CC1` [CBK084350] is lower in viability at 28.5 h, 10 µM: 106% for the first, 90.2% for the second.

Going from `CNC(=O)CN(CCO)Cc1cc(Br)ccc1F` [CBK304941] to `OCCN(CCO)c1ccccc1N(CCO)CCO` [CBK009141], the viability at 28.5 h, 10 µM falls from 108% to 85.7%.

First: COc1ccc(CN2C(=O)CC(c3ccccc3)C2=O)cc1 (centres unmarked) [CBK002055]
Second: O=C1N(c2ccc(Cl)cc2)Cc2nc(=O)[nH]n21 [CBK287899]
The viability at 28.5 h, 10 µM of the first is higher: 99.4% for the first, 91.6% for the second.

First: CCN(CC)CC(O)Cn1ccc(-c2cccs2)n1 (centres unmarked) [CBK005967]
Second: CN(C)CCCOC(=O)c1cccnc1Cl [CBK027436]
The viability at 28.5 h, 10 µM of the first is lower: 88.7% for the first, 111% for the second.

First: Cc1ccc(NC(=O)c2cncc(-c3ccc(C(=O)N4CCOCC4)cc3)c2)c(O)c1 [CBK160208]
Second: CCCc1ccc(S(=O)(=O)Nc2ccc(C(=O)N3CCN(C)CC3)cc2)cc1 [CBK034547]
The viability at 28.5 h, 10 µM of the first is lower: 84.3% for the first, 90.1% for the second.

Going from `CC1(C(=O)O)CCC(C(=O)Nc2ccc(F)cc2)C1(C)C` (centres unmarked) [CBK286953] to `CN(C)C1(c2nnnn2CCOC(=O)Nc2ccc(Cl)cc2)CCCCC1` [CBK266093], the viability at 28.5 h, 10 µM falls from 98.8% to 94.5%.

Going from `N=c1n(-c2ccccc2)c(O)c(C(c2ccncc2)c2c(O)n(-c3ccccc3)c(=N)n(-c3ccccc3)c2=O)c(=O)n1-c1ccccc1` (centres unmarked) [CBK261438] to `N#Cc1c[nH]c(C(=O)NC2CCN(C(=O)c3ccccc3)CC2)c1` [CBK306433], the viability at 28.5 h, 10 µM rises from 82% to 91%.

Going from `O[C@@H]1CN(Cc2ccccc2F)CC[C@H]1N1CCCC1` [CBK282934] to `COc1ncc(-c2nccnc2NCc2ccc(F)cc2)c(OC)n1` [CBK037668], the viability at 28.5 h, 10 µM falls from 96.9% to 96.7%.

Same assay, conditions: human, hela cells, % viability, bulk resorufin, single well

First: CC1(C)CC(=O)C(C2(O)C(=O)Nc3ccc(Br)cc32)CO1 (centres unmarked) [CBK263410]
Second: CC(=O)N1CCC2(CC1)OCc1cc(-c3cccc4cccnc34)ccc1O2 [CBK060969]
The viability at 28.5 h, 10 µM of the first is higher: 92.3% for the first, 88.4% for the second.

Work on `CCOC(=O)C1(c2ccccc2)CCN(C(=O)COc2ccc(F)cc2)CC1` [CBK132176] yielded a viability at 28.5 h, 10 µM of 93.8%.

Reference: paper PMC12040169 (PLOS Biology, 2025)
